{"source": "patent US20080255231A1", "about": "“POLYMORPHS OF RIVASTIGMINE HYDROGENTARTRATE” (priority 2007, published 2008)", "origin": "cited, not measured here", "data": [{"smiles": "CCN(C)C(=O)Oc1cccc([C@H](C)N(C)C)c1", "note": "[Rivastigmine hydrogentartrate, [3-[α-(Dimethylamino)-ethyl]phenyl]-N-methylethylcarbamate hydrogentartrate]", "values": [{"measurement": "solubility in acetonitrile", "setting": "acetonitrile", "value": "soluble"}, {"measurement": "solubility in ethanol", "setting": "ethanol", "value": "soluble"}, {"measurement": "solubility in ethyl acetate", "setting": "ethyl acetate", "value": "very slightly soluble"}, {"measurement": "solubility in n-octanol", "setting": "n-octanol", "value": "slightly soluble"}, {"measurement": "solubility in water", "setting": "water", "value": "very soluble"}]}]}
